Assay results: patent publication US20020002144A1, “Methods and compositions for bisubstrate inhibitors of acetyltransferases” (The Government of the United States of America, Department …, priority 1999, published 2002)
Blank lines part the entries; values can stand above or below the molecule they belong to.

Legend:
[1] = test system: arylamine N-acetyltransferase (E.C. 2.3.1.5); settings: adverse reactions reported to result from acetylation of the drug; cited from earlier work
[2] = test system: rat pinealocytes; experiment: Melatonin production by norepinephrine-treated pinealocytes (radioimmunoassay of medium); format: cell-based; settings: for Melatonin production: Experiment 1, 18-24 hours; for Melatonin (18-23 hr): Experiment 2
Procedure: (§1) Pineal cell preparation and treatment: Pinealocytes were prepared from rat pineal glands by trypsinization as previously described (10). The cells were suspended in Dulbecco's modified Eagle medium (DMEM) containing 10% fetal calf serum and maintained (37° C.) for 18 h in a gas mixture of 95% air and 5% CO2. During this 18 hour period, some cells were treated, as indicated in Table 2 experiment 2, in aliquots of 50,000 cells/300 μl and washed prior to addition of fresh medium and further treatment. In some cases, as in Table 3, experiment 1, cells were not aliquoted until after 18 hours of control incubation and in these cases, aliquots of cells (50,000 cells/300 μl) were prepared and treated with drugs. Drugs were prepared in 100×concentrated solutions in water or dimethyl sulfoxide. The duration of the drug treatment was 5 h.
At the end of treatment period, cells were collected by centrifugation (2 min, 10,000 g) and the medium was removed and stored. Cell pellets were frozen immediately in dry ice and stored at −80° C. until determination of AANAT activity. The supernatant collected was used for determination of melatonin.
Melatonin analysis. Melatonin in the medium was determined by a radioimmunoassay as described previously (11,12). Briefly, melatonin was extracted from 300 μl of medium by vortexing with 1 ml of methylene chloride. After centrifugation, 700 μl of the organic phase was collected and evaporated to dryness. The residue was reconstituted in 500 μl of assay buffer (0.01M phosphate buffer, pH 7.5, containing 0.1% gelatin).
An ultraspecific melatonin antiserum from CIDtech Research Inc. (Mississauga, Ontario Canada) was used for the melatonin radioimmunoassay. Aliquots of extracted melatonin samples were diluted to 500 μl with assay buffer. 100 μl of melatonin antiserum and 50 μl of [^3H]melatonin (˜2000 cpm, at 45.5 Ci/mmol) were then added. After mixing, the tubes were incubated at 4° C. overnight. To separate the bound from the free [^3H] melatonin, 650 μl of saturated ammonium sulphate were added and the samples were incubated at 4° C. for 1 hr. The bound [^3H]melatonin was collected in a protein pellet by centrifugation (4,000 g×30 min) and re-dissolved in 550 μl of deionized water. 500 μl was then used for scintillation counting. Both inter- and intra-assay variability were less than 10%.
N-Bromoacetyltryptamine treatment of rat pinealocytes inhibits melatonin production. Experiments were conducted to determine if N-bromoacetyltryptamine could inhibit production of melatonin. This was done using rat pinealocytes in which melatonin production was elevated by treatment with norepinephrine, which acts by elevating the activity of AANAT.

[3] = test system: rat pinealocytes; experiment: Cytotoxicity to pinealocytes (response to norepinephrine after wash out); format: cell-based; settings: 18 hour treatment with 0.5 μM, medium changed, then norepinephrine
Procedure: as §1
The effect of an 18 hour treatment with 0.5 μM N-bromoacetyltryptamine was examined. Following the 18 hour treatment, the medium was changed and fresh medium was added. Following this treatment, cells responded to norepinephrine treatment with an increase in melatonin production and AANAT activity.

[4] = target: T1, AANAT (Rattus norvegicus, UniProt Q64666); experiment: AANAT activity in treated pinealocytes; format: cell-based; settings: Experiment 2
T1 construct: Pinealocytes were prepared from rat pineal glands by trypsinization; endogenous in cells; host or cells: primary pinealocytes from male Sprague-Dawley rats
T1 sequence (Q64666 whole entry): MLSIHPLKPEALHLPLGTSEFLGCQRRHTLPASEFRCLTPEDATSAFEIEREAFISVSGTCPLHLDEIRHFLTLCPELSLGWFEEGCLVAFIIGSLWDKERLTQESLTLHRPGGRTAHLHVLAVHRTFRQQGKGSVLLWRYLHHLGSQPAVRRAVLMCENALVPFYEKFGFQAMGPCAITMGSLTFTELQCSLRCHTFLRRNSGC
Procedure: AANAT assay: The specific activity of the AANAT preparation was determined from measurement of the activity of the enzyme and amount of protein in a preparation. Activity was assayed by incubating the enzyme with ^3H-acetyl CoA (0.5 mM, 4 μCi/μmole) and tryptamine hydrochloride (1 mM), bovine serum albumin (0.5 mg/ml) and the enzyme in total volume of 100 μl of sodium phosphate (0.1M, pH 6.8) (6,7). The incubation was terminated by extracting the product ^3H-acetyltryptamine with chloroform (1 ml). The chloroform phase was washed sequentially with 200 μl of the sodium phosphate buffer and twice with 200 μl of NaOH (1N). The radioactivity in 400 μl of the chloroform phase was determined following evaporation of chloroform under vacuum. Protein was measured by optical density at 280 nm and by dye binding using the Brandford procedure. Pineal cell preparation and treatment: Pinealocytes were prepared from rat pineal glands by trypsinization as previously described (10). The cells were suspended in Dulbecco's modified Eagle medium (DMEM) containing 10% fetal calf serum and maintained (37° C.) for 18 h in a gas mixture of 95% air and 5% CO2. During this 18 hour period, some cells were treated, as indicated in Table 2 experiment 2, in aliquots of 50,000 cells/300 μl and washed prior to addition of fresh medium and further treatment. In some cases, as in Table 3, experiment 1, cells were not aliquoted until after 18 hours of control incubation and in these cases, aliquots of cells (50,000 cells/300 μl) were prepared and treated with drugs. Drugs were prepared in 100×concentrated solutions in water or dimethyl sulfoxide. The duration of the drug treatment was 5 h. At the end of treatment period, cells were collected by centrifugation (2 min, 10,000 g) and the medium was removed and stored. Cell pellets were frozen immediately in dry ice and stored at −80° C. until determination of AANAT activity. The supernatant collected was used for determination of melatonin.

[5] = target: T2, AANAT (Ovis aries, UniProt Q29495); experiment: AANAT assay with aqueous extracts of AANAT/CoA/N-bromoacetyltryptamine pre-incubations; format: biochemical; settings: 20 μl extract in 100 μl AANAT assay
T2 construct: made in house
T2 sequence (Q29495 whole entry): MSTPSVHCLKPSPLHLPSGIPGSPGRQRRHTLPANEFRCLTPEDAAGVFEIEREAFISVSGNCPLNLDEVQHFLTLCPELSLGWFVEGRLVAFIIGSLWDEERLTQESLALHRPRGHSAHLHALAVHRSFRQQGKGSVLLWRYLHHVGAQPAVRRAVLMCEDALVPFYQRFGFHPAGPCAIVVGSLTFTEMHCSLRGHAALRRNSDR
Procedure: AANAT assay: The specific activity of the AANAT preparation was determined from measurement of the activity of the enzyme and amount of protein in a preparation. Activity was assayed by incubating the enzyme with ^3H-acetyl CoA (0.5 mM, 4 μCi/μmole) and tryptamine hydrochloride (1 mM), bovine serum albumin (0.5 mg/ml) and the enzyme in total volume of 100 μl of sodium phosphate (0.1M, pH 6.8) (6,7). The incubation was terminated by extracting the product ^3H-acetyltryptamine with chloroform (1 ml). The chloroform phase was washed sequentially with 200 μl of the sodium phosphate buffer and twice with 200 μl of NaOH (1N). The radioactivity in 400 μl of the chloroform phase was determined following evaporation of chloroform under vacuum. Protein was measured by optical density at 280 nm and by dye binding using the Brandford procedure.
Incubations to study formation of CoA-S-N-acetyltryptamine.—Bromoacetyltryptamine (20 μM) was incubated (37° C., 30 min) with coenzyme A (20 μM), bovine serum albumin (0.5 mg/ml) and the enzyme in a total volume of 100 μl of Tris HCl (50 mM, pH 7.4) and the incubation was terminated by adding chloroform (1 ml) and vortexing. The aqueous phase was then removed. Samples of the aqueous phase from each chloroform extraction were analyzed by mass spectroscopy and for inhibitory activity in an AANAT assay.
This conclusion was supported by the biochemical evidence from experiments in which the aqueous extracts analyzed above were incubated with a fresh preparation of AANAT in an AANAT assay. Inhibitory activity of the extract was determined.

[6] = Treatment I BAT (0.5 μM) (0-18 hr), wash out, Treatment II NE (10 μM) (18-23 hr)
[7] = Treatment I DMSO (0-18 hr), Treatment II NE 10 μM + BAT (0.5 μM) (18-23 hr)
[8] = Treatment I DMSO (0-18 hr), Treatment II NE 10 μM (18-23 hr)

Structure (SMILES): CCC1(c2ccc(N)cc2)CCC(=O)NC1=O (centres unmarked) [Aminoglutethamide]
Adverse Drug Reaction Reported [1]: Adrenal insufficiency

Structure (SMILES): Nc1ccc(S(=O)(=O)c2ccc(N)cc2)cc1 [Dapsone]
Adverse Drug Reaction Reported [1]: Hematological

Structure (SMILES): NNc1nncc2ccccc12 [Hydralazine]
Adverse Drug Reaction Reported [1]: Lupus, uncontrolled hypertension

Structure (SMILES): NNC(=O)c1ccncc1 [Isoniazid]
Adverse Drug Reaction Reported [1]: Peripheral neuropathy, liver

AANAT (23 hr) [4, 6]: 0.86 ± 0.06 μmol/h/105 cells | AANAT (23 hr) [4, 7]: 0.48 ± 0.05 μmol/h/105 cells | remaining activity at 20 µM ([5]; Complete pre-assay reaction (AANAT + CoA 20 μM + N-bromoacetyltryptamine 20 μM, 37° C., 30 min), read-out: AANAT Activity (% of control)): 38% | AANAT Activity (% of control) ([5]; pre-assay reaction Minus CoA): 107% | AANAT Activity (% of control) ([5]; pre-assay reaction Zero time (not incubated)): 110% | AANAT Activity (% of control) ([5]; pre-assay reaction with Boiled enzyme): 104%
Structure (SMILES): O=C(CBr)NCCc1c[nH]c2ccccc12 [N-Bromoacetyltryptamine]
production of melatonin ([2]; 5 hour treatment with 0.1, 0.5 or 1 μM, norepinephrine-treated rat pinealocytes): markedly reduced | Melatonin production ([2]; N-Bromoacetyltryptamine (1 μM) alone): 0.65 ± 0.05 pmol/100,000 cells | Melatonin production ([2]; Norepinephrine (10 μM) + N-Bromoacetyltryptamine (0.1 μM)): 4.55 ± 0.04 pmol/100,000 cells | Melatonin production ([2]; Norepinephrine (10 μM) + N-Bromoacetyltryptamine (1 μM)): 0.95 ± 0.25 pmol/100,000 cells | Melatonin (18-23 hr) ([2]; Treatment I BAT (0.5 μM) (0-18 hr), wash out, Treatment II Control (18-23 hr)): 1.78 ± 0.14 pmole/10^5 cells | Melatonin (18-23 hr) [2, 6]: 12.22 ± 2.90 pmole/10^5 cells | Melatonin (18-23 hr) [2, 7]: 1.88 ± 0.82 pmole/10^5 cells | cytotoxicity [3]: not cytotoxic

Structure (SMILES): NC[C@H](O)c1ccc(O)c(O)c1 [Norepinephrine, reference compound]
Melatonin production ([2]; Norepinephrine (10 μM) alone): 12.43 ± 2.00 pmol/100,000 cells | Melatonin (18-23 hr) [2, 8]: 10.44 ± 1.07 pmole/10^5 cells | AANAT (23 hr) [4, 8]: 0.89 ± 0.10 μmol/h/105 cells

Structure (SMILES): CCN(CC)CCNC(=O)c1ccc(N)cc1 [Procainamide]
Adverse Drug Reaction Reported [1]: Lupus, uncontrolled arrhythmias

Structure (SMILES): Cc1cc(C)nc(NS(=O)(=O)c2ccc(N)cc2)n1 [Sulfamethazine]
Adverse Drug Reaction Reported [1]: Hematological/Gastrointestinal
